Experiment: Safety and tolerability (adverse events, laboratory tests, ECG), multiple-ascending-dose phase 1 study
Assay type: in vivo
Text: Subjects were monitored closely with serial physical examinations, blood evaluations, and 12-lead ECGs. Subjects underwent safety laboratory testing, including measurement of blood cell counts (white blood cell [WBC] with differential, hemoglobin, and platelets), serum chemistry (sodium, potassium, chloride, calcium, bicarbonate, glucose, creatinine, blood urea nitrogen [BUN], creatine kinase [CK], aspartate aminotransferase [AST], alanine aminotransferase [ALT], alkaline phosphatase [ALP], total bilirubin, protein, albumin, amylase, and lipase) and urinalysis (protein, blood, and glucose). Study halting criteria had been established and were reviewed by an independent safety monitor (ISM) and the Safety Monitoring Committee (SMC) prior to proceeding with dosing within a cohort or to the next cohort.
The safety population included all subjects who received at least one dose of the study drug. The safety and tolerability of CRS3123 were evaluated by the sequential review of reported adverse events (AEs), changes from baseline in physical examination findings, vital sign measurements, safety laboratory tests (hematology, clinical chemistry, and urinalysis), and key 12-lead ECG findings. All safety assessments were summarized with descriptive statistics or frequency counts.
The period of observation for AE reporting began on day 1 at the time of study drug administration and continued through the final visit.
All AEs were coded to system organ class (SOC) and preferred term (PT) using the Medical Dictionary for Regulatory Activities (MedDRA), version 17.0 (https://www.meddra.org/). A treatment-emergent AE (TEAE) was defined as any AE that occurred during the study observation period (i.e., from day 1 at the time of study drug administration through the final visit). An AE with a partial onset date was classified as a TEAE if the reported partial onset date could not definitely be identified as before the date of study drug administration. Any AE with a missing onset date or missing time on day of study drug administration was classified as a TEAE.
To count the overall number of subjects who experienced each TEAE and calculation of an occurrence rate, a subject experiencing multiple occurrences of an AE was counted only once for that PT. Similarly, if a subject experienced multiple TEAEs within the same SOC, that subject was counted once to calculate an occurrence rate for the SOC. To count the number of subjects who experienced each TEAE by severity classification (mild, moderate, severe, and life-threatening) and calculate an occurrence rate, a subject experiencing multiple occurrences of an AE of the same severity was counted once in that particular severity classification for that PT. If a subject experienced multiple occurrences of an AE of differing severities, only the most severe occurrence within each PT was counted.

[1] = all TEAEs, Cohort B, 400 mg Q12h (n = 8)
[2] = all TEAEs, Cohort C, 600 mg Q12h (n = 8)
[3] = treatment-related AEs, All active (n = 24)
[4] = treatment-related AEs, Cohort A, 200 mg Q12h (n = 8)
[5] = treatment-related AEs, Cohort B, 400 mg Q12h (n = 8)
[6] = treatment-related AEs, Cohort C, 600 mg Q12h (n = 8)

O=c1cc(NCCCN[C@@H]2CCOc3c(Br)cc(Br)cc32)[nH]c2ccsc12 [CRS3123]
No. (%) of subjects: Dry skin [1]: 1 (12.5) | No. (%) of subjects: Dysgeusia [1]: 1 (12.5) | No. (%) of subjects: Ear and labyrinth disorders (system organ class) [1]: 0 (0.0) | No. (%) of subjects: Ear discomfort [1]: 0 (0.0) | No. (%) of subjects: Erythema [1]: 1 (12.5) | No. (%) of subjects: Gastrointestinal disorders (system organ class) [1]: 2 (25.0) | No. (%) of subjects: General disorders and administration site conditions (system organ class) [1]: 0 (0.0) | No. (%) of subjects: Headache [1]: 1 (12.5) | No. (%) of subjects: Hemoglobin decreased [1]: 1 (12.5) | No. (%) of subjects: Infections and infestations (system organ class) [1]: 0 (0.0) | No. (%) of subjects: Infusion site thrombosis [1]: 0 (0.0) | No. (%) of subjects: Injury, poisoning, and procedural complications (system organ class) [1]: 0 (0.0) | No. (%) of subjects: Investigations (system organ class) [1]: 4 (50.0) | No. (%) of subjects: Lipase increased [1]: 2 (25.0) | No. (%) of subjects: Myalgia [1]: 1 (12.5) | No. (%) of subjects: Nervous system disorders (system organ class) [1]: 2 (25.0) | No. (%) of subjects: Oropharyngeal pain [1]: 0 (0.0) | No. (%) of subjects: Psychiatric disorders (system organ class) [1]: 0 (0.0) | No. (%) of subjects: Respiratory, thoracic, and mediastinal disorders (system organ class) [1]: 1 (12.5) | No. (%) of subjects: Skin and subcutaneous tissue disorders (system organ class) [1]: 2 (25.0) | No. (%) of subjects: Subjects with TEAEs [1]: 6 (75.0) | No. (%) of subjects: Throat irritation [1]: 1 (12.5) | No. (%) of subjects: Upper respiratory tract infection [1]: 0 (0.0) | No. (%) of subjects: White blood cell count increased [1]: 0 (0.0) | No. (%) of subjects: Alanine aminotransferase increased [2]: 2 (25.0) | No. (%) of subjects: Amylase increased [2]: 1 (12.5) | No. (%) of subjects: Anxiety [2]: 0 (0.0) | No. (%) of subjects: Arthropod bite [2]: 0 (0.0) | No. (%) of subjects: Aspartate aminotransferase increased [2]: 2 (25.0) | No. (%) of subjects: Blood bilirubin increased [2]: 1 (12.5) | No. (%) of subjects: Blood calcium increased [2]: 0 (0.0) | No. (%) of subjects: Blood potassium increased [2]: 0 (0.0) | No. (%) of subjects: Blood pressure, diastolic, decreased [2]: 1 (12.5) | No. (%) of subjects: Blood pressure, diastolic, increased [2]: 1 (12.5) | No. (%) of subjects: Blood pressure, systolic, decreased [2]: 0 (0.0) | No. (%) of subjects: Blood pressure, systolic, increased [2]: 1 (12.5) | No. (%) of subjects: Diarrhea [2]: 0 (0.0) | No. (%) of subjects: Dry skin [2]: 0 (0.0) | No. (%) of subjects: Dysgeusia [2]: 0 (0.0) | No. (%) of subjects: Ear and labyrinth disorders (system organ class) [2]: 0 (0.0) | No. (%) of subjects: Ear discomfort [2]: 0 (0.0) | No. (%) of subjects: Erythema [2]: 0 (0.0) | No. (%) of subjects: Gastrointestinal disorders (system organ class) [2]: 0 (0.0) | No. (%) of subjects: General disorders and administration site conditions (system organ class) [2]: 1 (12.5) | No. (%) of subjects: Headache [2]: 0 (0.0) | No. (%) of subjects: Hemoglobin decreased [2]: 1 (12.5) | No. (%) of subjects: Infections and infestations (system organ class) [2]: 0 (0.0) | No. (%) of subjects: Infusion site thrombosis [2]: 1 (12.5) | No. (%) of subjects: Injury, poisoning, and procedural complications (system organ class) [2]: 0 (0.0) | No. (%) of subjects: Investigations (system organ class) [2]: 6 (75.0) | No. (%) of subjects: Lipase increased [2]: 2 (25.0) | No. (%) of subjects: Musculoskeletal and connective tissue disorders (system organ class) [2]: 0 (0.0) | No. (%) of subjects: Myalgia [2]: 0 (0.0) | No. (%) of subjects: Nervous system disorders (system organ class) [2]: 0 (0.0) | No. (%) of subjects: Oropharyngeal pain [2]: 1 (12.5) | No. (%) of subjects: Psychiatric disorders (system organ class) [2]: 0 (0.0) | No. (%) of subjects: Respiratory, thoracic, and mediastinal disorders (system organ class) [2]: 1 (12.5) | No. (%) of subjects: Skin and subcutaneous tissue disorders (system organ class) [2]: 0 (0.0) | No. (%) of subjects: Subjects with TEAEs [2]: 6 (75.0) | No. (%) of subjects: Throat irritation [2]: 0 (0.0) | No. (%) of subjects: Upper respiratory tract infection [2]: 0 (0.0) | No. (%) of subjects: White blood cell count increased [2]: 0 (0.0) | withdrawals due to TEAEs (all doses): No subjects were withdrawn | No. (%) of subjects: Alanine aminotransferase increased [3]: 1 (4.2) | No. (%) of subjects: Diarrhea [3]: 1 (4.2) | No. (%) of subjects: Dysgeusia [3]: 1 (4.2) | No. (%) of subjects: Gastrointestinal disorders (system organ class) [3]: 1 (4.2) | No. (%) of subjects: Investigations (system organ class) [3]: 1 (4.2) | No. (%) of subjects: Lipase increased [3]: 0 (0.0) | No. (%) of subjects: Nervous system disorders (system organ class) [3]: 1 (4.2) | No. (%) of subjects: Subjects with TEAEs [3]: 3 (12.5) | No. (%) of subjects: Alanine aminotransferase increased [4]: 0 (0.0) | No. (%) of subjects: Diarrhea [4]: 0 (0.0) | No. (%) of subjects: Dysgeusia [4]: 0 (0.0) | No. (%) of subjects: Gastrointestinal disorders (system organ class) [4]: 0 (0.0) | No. (%) of subjects: Investigations (system organ class) [4]: 0 (0.0) | No. (%) of subjects: Lipase increased [4]: 0 (0.0) | No. (%) of subjects: Nervous system disorders (system organ class) [4]: 0 (0.0) | No. (%) of subjects: Alanine aminotransferase increased [5]: 0 (0.0) | No. (%) of subjects: Diarrhea [5]: 1 (12.5) | No. (%) of subjects: Dysgeusia [5]: 1 (12.5) | No. (%) of subjects: Gastrointestinal disorders (system organ class) [5]: 1 (12.5) | No. (%) of subjects: Investigations (system organ class) [5]: 0 (0.0) | No. (%) of subjects: Lipase increased [5]: 0 (0.0) | No. (%) of subjects: Nervous system disorders (system organ class) [5]: 1 (12.5) | No. (%) of subjects: Alanine aminotransferase increased [6]: 1 (12.5) | No. (%) of subjects: Diarrhea [6]: 0 (0.0) | No. (%) of subjects: Dysgeusia [6]: 0 (0.0) | No. (%) of subjects: Gastrointestinal disorders (system organ class) [6]: 0 (0.0) | No. (%) of subjects: Investigations (system organ class) [6]: 1 (12.5) | No. (%) of subjects: Lipase increased [6]: 0 (0.0) | No. (%) of subjects: Nervous system disorders (system organ class) [6]: 0 (0.0) | severity of TEAEs (whole study): majority of TEAEs reported in the study were of mild severity

— article PMC7187627 (Antimicrobial Agents and Chemotherapy, 2019)
